Results published in ChEMBL document CHEMBL5518172, “Discovery of hydroxamate as a promising scaffold dually inhibiting metallo- and serine-β-lactamases” (Eur J Med Chem, 2024).

Experiments:
[1] = tested on: Escherichia coli; experiment: Synergistic antibacterial activity against Escherichia coli BL21 (DE3) harboring serine beta lactamase OXA-48 assessed as meropenem MIC at 64 microg/ml measured after 16 hrs by CLSI protocol based broth microdilution method (reference value: 1 microg/ml); type: functional; conditions: dose 64 µg/ml
[2] = tested on: Escherichia coli; experiment: Synergistic antibacterial activity against Escherichia coli BL21 (DE3) harboring metallo-beta-lactamase IMP-1 assessed as meropenem MIC at 64 microg/ml measured after 16 hrs by CLSI protocol based broth microdilution method (reference value: 64 microg/ml); type: functional; conditions: dose 64 µg/ml
[3] = Inhibition of recombinant serine beta lactamase OXA-48 (unknown origin) expressed in Escherichia coli BL21 (DE3) cells using meropenem as substrate by spectrometric analysis; set-up: species or system Bacteria
[4] = tested on: Escherichia coli; experiment: Synergistic antibacterial activity against Escherichia coli BL21 (DE3) harboring metallo-beta lactamase IMP-1 assessed as fold decrease in meropenem MIC at 64 microg/ml measured after 16 hrs by CLSI protocol based broth microdilution method; type: functional; conditions: dose 64 µg/ml
[5] = Inhibition of recombinant metallo-beta-lactamase IMP-1 (unknown origin) expressed in Escherichia coli BL21 (DE3) cells using meropenem as substrate by spectrometric analysis; set-up: species or system Bacteria
[6] = tested on: Escherichia coli; experiment: Synergistic antibacterial activity against Escherichia coli BL21 (DE3) harboring NDM-1 assessed as meropenem MIC at 64 microg/ml measured after 16 hrs by CLSI protocol based broth microdilution method (reference value: 256 microg/ml); type: functional; conditions: dose 64 µg/ml
[7] = Inhibition of recombinant serine beta lactamase KPC-2 (unknown origin) expressed in Escherichia coli BL21 (DE3) cells using meropenem as substrate by spectrometric analysis; set-up: species or system Bacteria
[8] = tested on: Bacteria; experiment: Inhibition of recombinant metallo-beta-lactamase L-1 (unknown origin) expressed in Escherichia coli BL21 (DE3) cells using cefazolin as substrate at 20 uM by spectrometric analysis relative to control
[9] = molecular target: Metallo-beta-lactamase type 2 (Bacteria, UniProt C7C422); experiment: Inhibition of recombinant NDM-1 (unknown origin) expressed in Escherichia coli BL21 (DE3) cells using meropenem as substrate by spectrometric analysis
[10] = tested on: Escherichia coli; experiment: Synergistic antibacterial activity against Escherichia coli BL21 (DE3) harboring serine beta lactamase KPC-2 assessed as meropenem MIC at 64 microg/ml measured after 16 hrs by CLSI protocol based broth microdilution method (reference value: 16 microg/ml); type: functional; conditions: dose 64 µg/ml
[11] = tested on: Bacteria; experiment: Inhibition of recombinant metallo-beta-lactamase ImiS (unknown origin) expressed in Escherichia coli BL21 (DE3) cells using meropenem as substrate at 20 uM by spectrometric analysis relative to control
[12] = molecular target: Metallo-beta-lactamase type 2 (Bacteria) (UniProt C7C422); experiment: Inhibition of recombinant NDM-1 (unknown origin) expressed in Escherichia coli BL21 (DE3) cells using meropenem as substrate at 20 uM by spectrometric analysis relative to control
[13] = tested on: Escherichia coli; experiment: Synergistic antibacterial activity against Escherichia coli BL21 (DE3) harboring NDM-1 assessed as fold decrease in meropenem MIC at 64 microg/ml measured after 16 hrs by CLSI protocol based broth microdilution method; type: functional; conditions: dose 64 µg/ml
[14] = tested on: Bacteria; experiment: Inhibition of recombinant metallo-beta-lactamase IMP-1 (unknown origin) expressed in Escherichia coli BL21 (DE3) cells using cefazolin as substrate at 20 uM by spectrometric analysis relative to control
[15] = tested on: Escherichia coli; experiment: Synergistic antibacterial activity against Escherichia coli BL21 (DE3) harboring serine beta lactamase OXA-48 assessed as fold decrease in meropenem MIC at 64 microg/ml measured after 16 hrs by CLSI protocol based broth microdilution method; type: functional; conditions: dose 64 µg/ml
[16] = tested on: Bacteria; experiment: Inhibition of recombinant serine beta lactamase KPC-2 (unknown origin) expressed in Escherichia coli BL21 (DE3) cells using meropenem as substrate at 20 uM by spectrometric analysis relative to control
[17] = tested on: Escherichia coli; experiment: Synergistic antibacterial activity against Escherichia coli BL21 (DE3) harboring serine beta lactamase KPC-2 assessed as fold decrease in meropenem MIC at 64 microg/ml measured after 16 hrs by CLSI protocol based broth microdilution method; type: functional; conditions: dose 64 µg/ml
[18] = tested on: Bacteria; experiment: Inhibition of recombinant serine beta lactamase OXA-48 (unknown origin) expressed in Escherichia coli BL21 (DE3) cells using meropenem as substrate at 20 uM by spectrometric analysis relative to control

Chain of Metallo-beta-lactamase type 2 (Bacteria) (C7C422 whole entry): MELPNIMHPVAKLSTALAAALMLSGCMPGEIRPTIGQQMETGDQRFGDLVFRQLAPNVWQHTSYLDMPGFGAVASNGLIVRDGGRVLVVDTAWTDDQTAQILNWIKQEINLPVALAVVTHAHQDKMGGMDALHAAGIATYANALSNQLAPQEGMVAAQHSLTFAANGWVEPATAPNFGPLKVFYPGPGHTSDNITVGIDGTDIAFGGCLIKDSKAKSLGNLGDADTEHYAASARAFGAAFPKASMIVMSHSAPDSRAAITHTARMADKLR
Chain of Metallo-beta-lactamase type 2 (C7C422 whole entry): as above

Structure (SMILES) | MIC [1] [µg/mL] | MIC [2] [µg/mL] | IC50 [3] [nM] | fold change (FC) [4] | IC50 [5] [nM] | MIC [6] [µg/mL] | IC50 [7] [nM] | inhibition [8] [%] | IC50 [9] [nM] | MIC [10] [µg/mL] | inhibition [11] [%] | inhibition [12] [%] | fold change (FC) [13] | inhibition [14] [%] | fold change (FC) [15] | inhibition [16] [%] | fold change (FC) [17] | inhibition [18] [%]
CC(=O)NOC(=O)OCc1ccccc1 | 1 | 32 | > 50000 | 2 | 2420 | 64 | > 50000 | < 42 | 3210 | 16 | < 42 | > 90 | 2 | > 90 |  |  |  | 
CC(C)COC(=O)ONC(=O)CCCc1ccccc1 | 0.5 | 32 | 1030 | 2 | 850 | 64 | 1470 | < 42 | 1870 | 8 | < 42 | > 90 | 2 | > 90 | 2 | > 90 | 2 | > 90
CCOC(=O)ONC(=O)CCCc1ccccc1 | 0.5 | 16 | 2880 | 2 | 2890 | 64 | 980 | < 42 | 990 | 4 | < 42 | > 90 | 2 | > 90 | 2 | > 90 | 2 | > 90
O=C(CC(c1ccccc1)c1ccccc1)NOC(=O)OCc1ccccc1 | 0.5 | 64 | 5450 |  | 650 | 64 | 1960 | < 42 | 840 | 8 | < 42 | > 90 |  | > 90 | 2 |  | 2 | 
O=C(OCc1ccccc1)ONC(=O)C1CCCCC1 | 1 | 64 | 6710 |  | 27200 | 128 | 41900 |  | 41100 | 16 |  |  |  |  |  |  |  | 
CCOC(=O)ONC(=O)CC(c1ccccc1)c1ccccc1 | 1 | 64 | 10000 |  | 1640 | 128 | 13100 | < 42 | 2240 | 8 | < 42 | > 90 |  | > 90 |  |  | 2 | 
O=C(OCc1ccccc1)ONC(=O)c1ccccc1 | 1 | 64 | > 50000 |  | 2380 | 128 | > 50000 | < 42 | 2620 | 16 | < 42 | > 90 |  | > 90 |  |  |  | 
CCOC(=O)ONC(=O)C(CC)c1ccccc1 (configuration not stated) | 1 | 32 | 32700 | 2 | 32200 | 128 | 28000 |  | 37400 | 16 |  |  | 2 |  |  |  |  | 
